Experimental data taken from US8404693B2, “Substituted piperidine compounds and methods of their use” (Adolor Corporation, priority 2003, dated 2013).
pIC50, pKi: −log10 of the molar value.

Key:
[1] = target: T1, cloned human μ opioid receptor (Homo sapiens, UniProt P35372); experiment: [3H]diprenorphine receptor binding, μ opioid receptor; conditions: [3H]diprenorphine displacement; read-out: affinity (expressed as Ki value), μ opioid receptor
T1 construct: expressed in transfected cells
Description: (§1) The potencies of the compounds were determined by testing the ability of a range of concentrations of each compound to inhibit the binding of the non-selective opioid antagonist, [^3H]diprenorphine, to the cloned human μ, κ, and δ opioid receptors, expressed in separate cell lines. IC50 values were obtained by nonlinear analysis of the data using GraphPad Prism version 3.00 for Windows (GraphPad Software, San Diego). Ki values were obtained by Cheng-Prusoff corrections of IC50 values.
(§2) The receptor binding method (DeHaven and DeHaven-Hudkins, 1998) was a modification of the method of Raynor et al. (1994). […] The filters were rinsed 4 times with 1 mL of cold 50 mM Tris HCl, pH 7.8 and radioactivity remaining on the filters determined by scintillation spectroscopy. Nonspecific binding was determined by the minimum values of the titration curves and was confirmed by separate assay wells containing 10 μM naloxone. Ki values were determined by Cheng-Prusoff corrections of IC50 values derived from nonlinear regression fits of 12 point titration curves using GraphPad Prism® version 3.00 for Windows (GraphPad Software, San Diego, Calif.).
(§3) To determine the equilibrium dissociation constant for the inhibitors (Ki), radioligand bound (cpm) in the presence of various concentrations of test compounds was measured. […]

[2] = target: T1, cloned human μ opioid receptor; experiment: inhibition of agonist (loperamide)-stimulated [35S]GTPγS binding; assay type: biochemical; conditions: receptor not given; mu opioid receptor from context; read-out: in vitro antagonist activity (IC50)
Description: The potencies of the antagonists were assessed by their abilities to inhibit agonist-stimulated [^35S]GTPγS binding to membranes containing the cloned human μ, κ, or δ opioid receptors. The agonists used were loperamide for the μ opioid receptor, U50488H for the κ opioid receptor, and BW373U86 for the δ opioid receptor.
To determine the IC50 value, which was the concentration to give half-maximal inhibition of agonist-stimulated [^35S]GTPγS binding, the amount of [^35S]GTPγS bound in the presence of a fixed concentration of agonist and various concentrations of antagonist was measured. The fixed concentration of agonist was the EC80 for the agonist, which was the concentration to give 80% of the relative maximum stimulation of [^35S]GTPγS binding. The IC50 value was determined from a best nonlinear regression fit of the data to the following equation,
where Y is the amount of [^35S]GTPγS bound at each concentration of antagonist, Bottom is the calculated amount of [^35S]GTPγS bound in the presence of an infinite concentration of antagonist, Top is the calculated amount of [^35S]GTPγS bound in the absence of added antagonist, X is the logarithm of the concentration of antagonist, and Log IC50 is the logarithm of the concentration of antagonist where the amount of [^35S]GTPγS bound is halfway between Bottom and Top. […]

[3] = target: T2, cloned human δ opioid receptor (Homo sapiens, UniProt P41143); experiment: [3H]diprenorphine receptor binding, δ opioid receptor; conditions: [3H]diprenorphine displacement; read-out: affinity (expressed as Ki value), δ opioid receptor
T2 construct: expressed in transfected cells
T2 sequence (P41143 whole entry): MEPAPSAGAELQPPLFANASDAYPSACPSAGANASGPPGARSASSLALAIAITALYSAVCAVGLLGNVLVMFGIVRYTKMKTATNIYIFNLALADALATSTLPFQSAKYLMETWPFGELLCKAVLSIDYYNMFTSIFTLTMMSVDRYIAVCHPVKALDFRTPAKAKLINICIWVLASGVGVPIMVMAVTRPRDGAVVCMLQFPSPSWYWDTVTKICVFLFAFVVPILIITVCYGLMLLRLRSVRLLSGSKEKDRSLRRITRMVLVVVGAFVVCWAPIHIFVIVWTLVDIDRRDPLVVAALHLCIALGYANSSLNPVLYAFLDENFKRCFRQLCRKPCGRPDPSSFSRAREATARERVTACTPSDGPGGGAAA
Description: as §1, §2, §3

[4] = tested on: Mouse Gastrointestinal Transit (GIT); experiment: Mouse Gastrointestinal Transit (GIT) Assay; assay type: in vivo; conditions: 10 mg/kg p.o., morphine 3 mg/kg s.c.
Description: Male Swiss-Webster mice (25-30 g) obtained from Ace Animals (Boyertown, Pa.) were used for all experiments. Mice were housed 4/cage in polycarbonate cages with food and water available ad libitum. Mice were on a 12 hours light:dark schedule with lights on at 6:30 a.m. All experiments were performed during the light cycle. Mice were fasted the night before the experiment, with water available ad libitum.
Mice were administered vehicle (10% DMSO:20% Cremophor EL:70% saline) or test compound (10 mg/kg) orally 2 or 6 hours before determination of GIT. Compounds were administered in a volume of 0.1 ml/10 g of body weight. Morphine (3 mg/kg) or vehicle (0.9% saline) was administered s.c. 35 min prior to determination of GIT. Ten minutes after the morphine treatment, mice were administered 0.2 ml of a charcoal meal orally. The charcoal meal consisted of a slurry of charcoal, flour, and water in the following ratio (1:2:8, w:w:v). Twenty-five minutes after receiving the charcoal meal, the mice were euthanized with CO2 and GIT determined.
GIT is expressed as the % GIT by the following formula:
[formula] For each compound a % Antagonism (% A) value was determined for the 2 and 6 hr antagonist pretreatment. Using the mean % GIT for each treatment group, % A was calculated using the following formula: […]

[5] = target: T3, cloned human κ opioid receptor (Homo sapiens, UniProt P41145); experiment: [3H]diprenorphine receptor binding, κ opioid receptor; conditions: [3H]diprenorphine displacement; read-out: affinity (expressed as Ki value), κ opioid receptor
T3 construct: expressed in transfected cells
T3 sequence (P41145 whole entry): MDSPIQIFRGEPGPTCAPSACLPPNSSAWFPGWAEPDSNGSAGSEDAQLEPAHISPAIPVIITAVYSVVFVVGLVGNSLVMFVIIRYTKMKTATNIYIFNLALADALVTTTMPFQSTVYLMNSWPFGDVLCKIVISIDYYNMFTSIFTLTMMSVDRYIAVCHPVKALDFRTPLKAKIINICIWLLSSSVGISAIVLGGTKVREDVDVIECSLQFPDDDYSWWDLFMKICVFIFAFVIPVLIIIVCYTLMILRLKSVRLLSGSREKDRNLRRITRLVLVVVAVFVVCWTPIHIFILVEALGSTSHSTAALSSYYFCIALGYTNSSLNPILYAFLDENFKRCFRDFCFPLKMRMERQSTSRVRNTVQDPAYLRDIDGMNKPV
Description: as §1, §2, §3

T1 sequence (P35372 whole entry): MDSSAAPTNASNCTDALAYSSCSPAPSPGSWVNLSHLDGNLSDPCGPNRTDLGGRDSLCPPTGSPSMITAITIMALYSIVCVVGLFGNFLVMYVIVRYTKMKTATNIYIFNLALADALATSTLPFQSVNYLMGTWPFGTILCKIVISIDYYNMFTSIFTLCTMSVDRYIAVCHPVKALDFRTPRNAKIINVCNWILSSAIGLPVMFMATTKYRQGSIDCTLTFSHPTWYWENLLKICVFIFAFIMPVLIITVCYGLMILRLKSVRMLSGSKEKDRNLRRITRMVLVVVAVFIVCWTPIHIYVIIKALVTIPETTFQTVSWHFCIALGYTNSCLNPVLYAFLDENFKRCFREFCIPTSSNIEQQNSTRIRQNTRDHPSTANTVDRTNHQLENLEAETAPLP

SMILES | pKi [1] | pIC50 [2] | pKi [3] | % antagonism ([4]; 2 h pretreatment) [%] | % antagonism ([4]; 6 h pretreatment) [%] | pKi [5]
C[C@H]1CN(CC(Cc2ccccc2)C(=O)NCC(=O)O)CC[C@@]1(C)c1cccc(C(=O)O)c1 (stereo in doubt) [Example 28, [[2(R)-[[4(R)-(3-carboxyphenyl)-3(R),4-dimethyl-1-piperidin-yl]methyl]-1-oxo-3-phenylpropyl]amino]acetic Acid] | 7.72 | 8.47 | 5.88 | 86 | 71 | 
C[C@H]1CN(C[C@H](Cc2ccccc2)C(=O)NCC(=O)O)CC[C@@]1(C)c1cccc(C(N)=O)c1 [Example 58, [[2(R)-[[4(R)-(3-amidophenyl)-3(R),4-dimethyl-1-piperidinyl]methyl]-1-oxo-3-phenylpropyl]amino]acetic Acid] | 8.59 | 8.52 | 7.07 | 92 | 61 | 5.97
